This passage reports storage stability and solubility results from patent publication US9926305B2, “Salts” (Bayer Pharma Aktiengesellschaft, priority 2013, dated 2018).

A short description of data set [1]: storage stability after processing via suspensions. It is filed as physicochemical. The conditions noted are these: crystalline salt, even after processing via suspensions.
For data set [2] the following is noted: for some applications; suitability for use in formulations.

Turning to `Cn1c(=O)oc2cc(-n3cc(C(=O)O)c(=O)n([C@@H]4CCc5c4cccc5C(F)(F)F)c3=O)ccc21.NCCCC[C@H](N)C(=O)O` [L-lysine salt, L-lysine salt of 1-(3-methyl-2-oxo-2,3-dihydro-1,3-benzoxazol-6-yl)-2,4-dioxo-3-[(1R)-4-(trifluoromethyl)-2,3-dihydro-1H-inden-1-yl]-1,2,3,4-tetrahydropyrimidine-5-carboxylic acid], the storage stability result in data set [1] is “storage-stable”.
As to `Cn1c(=O)oc2cc(-n3cc(C(=O)O)c(=O)n([C@@H]4CCc5c4cccc5C(F)(F)F)c3=O)ccc21` [free acid, 1-(3-Methyl-2-oxo-2,3-dihydro-1,3-benzoxazol-6-yl)-2,4-dioxo-3-[(1R)-4-(trifluoromethyl)-2,3-dihydro-1H-inden-1-yl]-1,2,3,4-tetrahydropyrimidine-5-carboxylic acid], the solubility entry in data set [2] was “insufficient solubility”.
Regarding `Cn1c(=O)oc2cc(-n3cc(C(=O)[O-])c(=O)n([C@@H]4CCc5c4cccc5C(F)(F)F)c3=O)ccc21.[K+]` [potassium salt, potassium salt of 1-(3-methyl-2-oxo-2,3-dihydro-1,3-benzoxazol-6-yl)-2,4-dioxo-3-[(1R)-4-(trifluoromethyl)-2,3-dihydro-1H-inden-1-yl]-1,2,3,4-tetrahydropyrimidine-5-carboxylic acid], the storage stability result in data set [1] is on record as “storage-stable”.
`Cn1c(=O)oc2cc(-n3cc(C(=O)[O-])c(=O)n([C@@H]4CCc5c4cccc5C(F)(F)F)c3=O)ccc21.[Na+]` [sodium salt, sodium salt of 1-(3-methyl-2-oxo-2,3-dihydro-1,3-benzoxazol-6-yl)-2,4-dioxo-3-[(1R)-4-(trifluoromethyl)-2,3-dihydro-1H-inden-1-yl]-1,2,3,4-tetrahydropyrimidine-5-carboxylic acid]: the storage stability result in data set [1] is “storage-stable”.
